{"source": "patent US20110250184A1", "about": "“METHODS FOR DETERMINING EFFICACY OF A THERAPEUTIC REGIMEN AGAINST DELETERIOUS EFFECTS OF CYTOTOXIC AGENTS IN HUMAN” (priority 2008, published 2011)", "key": {"[1]": {"test_system": "67 radioligand receptor binding assays", "assay": "Panel of 67 radioligand receptor binding assays", "details": "in vitro primary screening", "procedure": "Additional biochemical studies were performed to screen for potential secondary or non-specific activities. ON 01210.Na was subjected to in vitro primary screening across a broad panel of 67 radioligand receptor binding assays and five cytochrome P450 enzymes: 1A2, 2C9, 2C19, 3A4, and 2D6. […] Only one cytochrome assay, CYP450 2C9, in which the activity was […] 98%, yielded a response that was considered significant. Thus, as a preliminary screen for safety and selectivity profiling, no targets were identified."}, "human skin fibroblasts": {"test_system": "human skin fibroblasts", "assay": "In vitro clonogenic survival assay, skin fibroblasts", "type": "cell-based"}, "[2]": {"test_system": "p53, p21, bax, c-abl and p73", "assay": "Protein levels in cells in response to radiation exposure", "type": "cell-based", "text": "This reduction could be instrumental in decreased cell death and increased cell recovery in ON 01210.Na pretreated irradiated cells."}, "jejunal crypt stem cells": {"test_system": "jejunal crypt stem cells", "assay": "Gastrointestinal tissue damage in irradiated mice", "type": "in vivo", "details": "pretreated prior to irradiation"}, "human bone marrow cells": {"test_system": "human bone marrow cells", "assay": "In vitro radiation protection of human bone marrow cells (methocult CFU)", "type": "cell-based", "details": "3 hour treatment, no radiation, all concentrations tested; sodium salt"}}, "note": "Entries after “also recorded” stand apart in the source; their conditions may differ.", "data": [{"compound": "O=C([O-])c1ccc(/C=C/S(=O)(=O)Cc2ccc(Cl)cc2)cc1.[Na+]", "note": "[ON 01210.Na, E-4-Carboxystyryl-4-chlorobenzylsulfone sodium salt]", "values": [{"measurement": "inhibition or stimulation of receptor binding", "setting": "[1]", "result": "No significant inhibition or stimulation"}, {"measurement": "protection from radiation exposure (clonogenic survival)", "setting": "human skin fibroblasts", "result": "protected"}, {"measurement": "protein level of bax", "setting": "[2]", "result": "significantly reduce"}, {"measurement": "protein level of c-abl", "setting": "[2]", "result": "significantly reduce"}, {"measurement": "protein level of p21", "setting": "[2]", "result": "significantly reduce"}, {"measurement": "protein level of p53", "setting": "[2]", "result": "significantly reduce"}, {"measurement": "protein level of p73", "setting": "[2]", "result": "significantly reduce"}, {"measurement": "damage to the jejunal crypt stem cells", "setting": "jejunal crypt stem cells", "result": "significantly less damage"}, {"measurement": "toxicity of treatment without radiation", "setting": "human bone marrow cells", "result": "non-toxic at all concentrations tested; also recorded: completely safe"}]}]}
